Reference: the NIST ThermoML archive (doi:10.1016/j.jct.2014.12.017)
Numbers after ± are expanded uncertainties.

Assay: wn = mass fraction of the nth substance listed
Details: 297.15 K; 101 kPa; Liquid; Alternating current cell with electrodes; w1 = 0.1

Going from `Cn1cc[n+](CCO)c1.[Br-]` [3-(2-hydroxyethyl)-1-methyl-1H-imidazolium bromide] + O to `C[n+]1ccn(CCO)c1.[Cl-]` [1-(2-hydroxyethyl)-3-methyl-1H-imidazolium chloride] + O, the electrical conductivity rises from 3.58 ± 0.04 S/m to 4.19 ± 0.04 S/m.

Compared with `CCCCn1cc[n+](C)c1.O=S(=O)([O-])C(F)(F)F` [1-butyl-3-methylimidazolium trifluoromethanesulfonate] + O, `CCCCn1cc[n+](C)c1.O=S(=O)([O-])O` [1-butyl-3-methylimidazolium hydrogen sulfate] + O is higher in electrical conductivity: 1.38 ± 0.014 S/m for the first, 7.63 ± 0.08 S/m for the second.

Going from `CCCCn1cc[n+](C)c1.N#CN=C=[N-]` [1-butyl-3-methylimidazolium dicyanamide] + O to `CCCCn1cc[n+](C)c1.[Br-]` [1-butyl-3-methylimidazolium bromide] + O, the electrical conductivity rises from 1.9 ± 0.019 S/m to 2.87 ± 0.03 S/m.

First: CCCCn1cc[n+](C)c1.COS(=O)(=O)[O-] [1-butyl-3-methylimidazolium methyl sulfate] + O
Second: CCCCn1cc[n+](C)c1.[Cl-] [1-butyl-3-methylimidazolium chloride] + O
The electrical conductivity of the first is lower: 1.727 ± 0.017 S/m for the first, 3.43 ± 0.03 S/m for the second.

With `CCCCn1cc[n+](C)c1.[O-][Cl+3]([O-])([O-])[O-]` [1-butyl-3-methylimidazolium perchlorate] + O the electrical conductivity was 2.18 ± 0.02 S/m.
